# Reference: patent US20220039384A1, “SELECTIVE WEED CONTROL WITH HALAUXIFEN OR 4-AMINO-3-CHLORO-5-FLUORO-6-(4-CHLORO-2-FLUORO-3-METHOXYPHENYL) PYRIDINE-2-CARBOXYLIC ACID OR DERIVATIVES THEREOF IN VINEYARDS OR PERENNIAL CROPS” (Corteva Agriscience LLC, priority 2013, published 2022)
# Tests used:
# [1] = tested on: commercially relevant broadleaf and grass weeds; assay: Pre- and post-emergence weed control, general statement; type: in vivo; details: application rate of 2.5 to 40 g ae/ha; pre-emergence and post-emergence application
# Text: (§1) Additional examples of application rates for Compound I as a pre-emergence and post-emergence application include 0.25 to 50 g ae/ha, 0.25 to 45 g ae/ha, 0.25 to 40 g ae/ha, 0.25 to 35 g ae/ha, 0.25 to 30 g ae/ha, 0.25 to 25 g ae/ha, 0.25 to 20 g ae/ha, 0.25 to 15 g ae/ha, 0.25 to 10 g ae/ha, 0.25 to 5 g ae/ha, 2.5 to 50 g ae/ha, 5 to 50 g ae/ha, 10 to 50 g ae/ha, 15 to 50 g ae/ha, 20 to 50 g ae/ha, 25 to 50 g ae/ha, 30 to 50 g ae/ha, 35 to 50 g ae/ha, 40 to 50 g ae/ha, 45 to 50 g ae/ha, 5 to 40 g ae/ha, 10 to 40 g ae/ha, 15 to 40 g ae/ha, 20 to 40 g ae/ha, 25 to 40 g ae/ha, 30 to 40 g ae/ha, 35 to 40 g ae/ha, 2.5 to 35 g ae/ha, 2.5 to 30 g ae/ha, 2.5 to 25 g ae/ha, 2.5 to 20 g ae/ha, 2.5 to 15 g ae/ha, 2.5 to 10 g ae/ha, 2.5 to 5 g ae/ha, 5 to 35 g ae/ha, 10 to 30 g ae/ha, 15 to 25 g ae/ha, and 15 to 20 g ae/ha. Further examples of application rates for Compound I as a pre-emergence and post-emergence application include 0.25 g ae/ha, 0.5 g ae/ha, 0.75 g ae/ha, 1 g ae/ha, 1.25 g ae/ha, 1.5 g ae/ha, 1.75 g ae/ha, 2 g ae/ha, 2.25 g ae/ha, 2.5 g ae/ha, 3 g ae/ha, 4 g ae/ha, 5 g ae/ha, 6 g ae/ha, 7 g ae/ha, 8 g ae/ha, 9 g ae/ha, 10 g ae/ha, 12 g ae/ha, 14 g ae/ha, 16 g ae/ha, 18 g ae/ha, 20 g ae/ha, 22 g ae/ha, 24 g ae/ha, 26 g ae/ha, 28 g ae/ha, 30 g ae/ha, 32 g ae/ha, 34 g ae/ha, 36 g ae/ha, 38 g ae/ha, 40 g ae/ha, 42 g ae/ha, 44 g ae/ha, 46 g ae/ha, 48 g ae/ha, and 50 g ae/ha. […]
# [2] = tested on: grapevines and perennial crops; assay: Crop safety, general statement; type: in vivo; details: post-emergence application rates of ≤20 g ae/ha; dormant application or spring application directed under the crops
# Text: as §1
# [3] = tested on: ERIBO (Conyza bonariensis, hairy fleabane); assay: Field trial, post-emergence directed spring application (April), California vineyards: visual weed control; type: in vivo; details: 35 g ai/ha
# Text: (§2) As used herein, selective pre- and post-emergence control of undesirable vegetation means preventing, reducing, killing, or otherwise adversely modifying the development of the undesirable vegetation in the presence of crop plants with limited adverse effect on the crop plants. For example, a broadleaf weed control of 80% (rated visually) with crop injury of less than or equal to 20% (rated visually) would constitute selective control. In some embodiments the adverse effect on crop plants is limited to less than 10% visually rated crop injury. Visual crop injury is a composite rating accounting for all phytotoxic effects including chlorosis, necrosis, growth inhibition, epinasty, delays in maturity and seed or fruit deformity. Visual weed control is a composite rating accounting for reductions in pest plant biomass and/or stand reduction.
# (§3) Small plot research experiments were conducted in Fresno, Calif., USA to evaluate the pre-emergence and post-emergence herbicidal weed control activity and the vines crop tolerance to pre-emergence and post-emergence application of Compound I and Compound II to the weeds. Application water volume of 100 to 187 liters per hectare (L/ha) was used for all experiments. All treatments were applied with a standard small plot carbon dioxide (CO2) backpack sprayer. All treatments were tank-mixed with Crop Oil Concentrate (COC), a well known adjuvant, at 2.34 L/ha. Experimental emulsifiable concentrate (EC) formulations were used for Compounds I and II. The dimethylammonium (DMA) salt of glyphosate was used in all trials. Pindar® GT is a commercial formulation containing a pre-mix of penoxsulam+oxyfluorfen (10+476 grams of active ingredient per liter (g ai/L), respectively). Vine crop stage was dormant (no leaves on the vines during the winter) or early spring growth at the time of Compound I or Compound II application. Generally, weeds were not emerged for the pre-emergence treatments or were at the two to six-leaf stage at the time of the post-emergence herbicide application.
# (§4) Tables 1, 2 and 6 provide weed control results from pre-emergence applications of Compounds I and/or II prior to weed emergence; Tables 4, 7 and 8 provide weed control results from post-emergence applications of Compounds I and/or II applied to actively growing weeds; Tables 3 and 5 provide vine response data from pre-emergence and post-emergence applications of Compound I respectively.
# [4] = tested on: SETFA (Setaria faberi, giant foxtail); assay: as above; type: in vivo; details: 35 g ai/ha
# Text: as §2, §3, §4
# [5] = tested on: PANCA (Panicum capillare, witchgrass); assay: as above; type: in vivo; details: 35 g ai/ha
# Text: as §2, §3, §4
# [6] = tested on: MALPA (Malva parviflora, smallflower malva); assay: as above; type: in vivo; details: 35 g ai/ha
# Text: as §2, §3, §4
# [7] = tested on: AGRRE (Agropyron repens, quackgrass); assay: as above; type: in vivo; details: 35 g ai/ha
# Text: as §2, §3, §4
# [8] = tested on: EROCI (Erodium cicutarium, redstem filaree); assay: as above; type: in vivo; details: 35 g ai/ha
# Text: as §2, §3, §4
# VITSS (Vitis spp, grape) = details: in vivo
# Description: as §3, with “herbicide application. […]” for “herbicide application.”
SMILES,efficacy on commercially relevant broadleaf and grass weeds [1],crop injury to grapevines and perennial crops [2],% Visual Control 60 DAA ERIBO [3],% Visual Control 60 DAA SETFA [4],% Visual Control 60 DAA PANCA [5],% Visual Control 60 DAA MALPA [6],% Visual Control 60 DAA AGRRE [7],% Visual Control 60 DAA EROCI [8],"VITSS 60 DAA Node Count (VITSS (Vitis spp, grape))","VITSS 60 DAA Vine Length (cm) (VITSS (Vitis spp, grape))"
"COc1c(Cl)ccc(-c2cc(N)c(Cl)c(C(=O)O)n2)c1F [Compound I, 4-amino-3-chloro-6-(4-chloro-2-fluoro-3-methoxyphenyl)pyridine-2-carboxylic acid]",highly efficacious,little to no crop injury,–,–,–,–,–,–,–,–
"COc1cnc(OC)n2nc(NS(=O)(=O)c3c(OCC(F)F)cccc3C(F)(F)F)nc12 [Penoxsulam, reference compound]",–,–,85%,97%,85%,85%,87%,87%,20,89 cm
